Test results as given in US6906188B2, “Method for synthesizing epothilones and epothilone analogs” (State of Oregon acting by and through the State Board of …, priority 2001, dated 2005).
Where two headings read alike, the source gives them in different places.

Experiments:
porcine tubulin = porcine tubulin (Sus scrofa, UniProt P02554); experiment: Induction of porcine tubulin polymerization; format: biochemical
KB-31 (Epidermoid) = experiment: Antiproliferative activity (growth inhibition), KB-31 cells; format: cell-based; conditions: Homo sapiens
Protocol: (§1) The antiproliferative activity of cis 9,10-dehydroepothilone D and trans 9,10-dehydroepothilone D was assessed in vitro using a panel of human cancer cell lines.

[1] = test system: KB-8511 (Epidermoid), Pgp-overexpressing sub-line of KB-31; experiment: Antiproliferative activity (growth inhibition), KB-8511 cells; conditions: Homo sapiens
Protocol: as §1

A549 (lung) = experiment: Antiproliferative activity (growth inhibition), A549 cells; format: cell-based; conditions: Homo sapiens
Protocol: as §1

HCT-116 (colon) = experiment: Antiproliferative activity (growth inhibition), HCT-116 cells; format: cell-based; conditions: Homo sapiens
Protocol: as §1

PC3-M (prostate) = experiment: Antiproliferative activity (growth inhibition), PC3-M cells; format: cell-based; conditions: Homo sapiens, PC-3M, read-out: IC50 PC3-M (prostate)
Protocol: as §1

MCF-7 (breast) = experiment: Antiproliferative activity (growth inhibition), MCF-7 cells; format: cell-based; conditions: Homo sapiens
Protocol: as §1

[2] = test system: panel of human cancer cell lines; experiment: Antiproliferative activity across the cell line panel; format: cell-based
Excerpt: Known epothilones have significant biological activity.

tubulin = conditions: Merck comparison with Taxol; cited from earlier work
[3] = test system: Pgp-expressing MDR neuroblastoma cell line (SK-N SH); conditions: cited from earlier work
[4] = test system: Potorous tridactylis kidney epithelial (PtK2) cells; conditions: indirect immunofluorescence; cited from earlier work
[5] = test system: subcutaneous implantations of tumor tissues; conditions: mice, subcutaneous tumor implants, Sloan Kettering; cited from earlier work
[6] = test system: IFN-γ-treated murine-macrophage; conditions: IFN-γ-treated murine macrophages; cited from earlier work
[7] = 5 μM compound, relative to the effect of Epothilone B at 25 μM defined as 100%
[8] = KB 3-1, Table 1, mean of three independent experiments, read-out: IC50 KB-31 (Epidermoid)
[9] = KB 3-1, read-out: IC50 KB-8511 (Epidermoid), Table 1, Pgp-overexpressing sub-line, mean of three independent experiments
[10] = A549, mean of three independent experiments, read-out: IC50 A549 (lung)
[11] = HCT-116, mean of three independent experiments, read-out: IC50 HCT-116 (colon)
[12] = mean of three independent experiments
[13] = MCF7, mean of three independent experiments, read-out: IC50 MCF-7 (breast)
[14] = antiproliferative potency, cell line panel of Table 1
[15] = Table 2, under the conditions used for Table 1, unit not given
[16] = KB 3-1, Table 2, under the conditions used for Table 1 (there nM), unit inferred, read-out: IC50 KB-31 (Epidermoid)
[17] = KB 3-1, read-out: IC50 KB-8511 (Epidermoid)
[18] = KB 3-1, read-out: IC50 KB-31 (Epidermoid), Table 2, under the conditions used for Table 1 (there nM), unit inferred
[19] = KB 3-1, read-out: IC50 KB-8511 (Epidermoid), Table 2, under the conditions used for Table 1 (there nM), unit inferred
[20] = A549, read-out: IC50 A549 (lung)
[21] = HCT-116, read-out: IC50 HCT-116 (colon)
[22] = MCF7, read-out: IC50 MCF-7 (breast)

porcine tubulin, sequence (P02554 whole entry): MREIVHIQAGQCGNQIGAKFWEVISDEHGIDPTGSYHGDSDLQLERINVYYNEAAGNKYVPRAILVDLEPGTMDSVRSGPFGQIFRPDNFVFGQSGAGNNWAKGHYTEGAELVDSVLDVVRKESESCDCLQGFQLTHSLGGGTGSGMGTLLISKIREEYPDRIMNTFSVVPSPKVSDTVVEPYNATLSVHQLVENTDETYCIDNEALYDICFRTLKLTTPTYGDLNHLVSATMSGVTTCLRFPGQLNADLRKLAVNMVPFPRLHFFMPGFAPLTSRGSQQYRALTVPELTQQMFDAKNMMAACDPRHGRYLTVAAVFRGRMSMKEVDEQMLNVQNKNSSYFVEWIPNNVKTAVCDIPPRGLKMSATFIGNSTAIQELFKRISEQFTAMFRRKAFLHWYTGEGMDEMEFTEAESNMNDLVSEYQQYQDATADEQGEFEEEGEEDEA
porcine tubulin, sequence (P02550 whole entry partner): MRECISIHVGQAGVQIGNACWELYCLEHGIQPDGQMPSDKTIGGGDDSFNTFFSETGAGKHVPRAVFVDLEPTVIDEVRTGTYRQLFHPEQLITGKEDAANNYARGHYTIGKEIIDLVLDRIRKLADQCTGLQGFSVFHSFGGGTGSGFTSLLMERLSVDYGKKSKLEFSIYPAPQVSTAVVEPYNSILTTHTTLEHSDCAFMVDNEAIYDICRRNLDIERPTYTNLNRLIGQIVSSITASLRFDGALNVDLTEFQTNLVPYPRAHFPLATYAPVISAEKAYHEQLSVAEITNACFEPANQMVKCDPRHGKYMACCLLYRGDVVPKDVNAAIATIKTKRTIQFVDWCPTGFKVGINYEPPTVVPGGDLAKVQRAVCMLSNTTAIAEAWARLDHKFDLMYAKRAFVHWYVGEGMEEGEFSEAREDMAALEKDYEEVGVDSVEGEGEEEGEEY

Row | SMILES | Tubulin Polym. (porcine tubulin; [7]) | IC50 (KB-31 (Epidermoid); [8]) | IC50 [1, 9] | IC50 (A549 (lung); [10]) | IC50 (HCT-116 (colon); [11]) | IC50 (PC3-M (prostate); [12]) | IC50 (MCF-7 (breast); [13]) | Tubulin Polym. (porcine tubulin; [15]) | also measured
1 | C/C1=C/C[C@@H](/C(C)=C/c2csc(C)n2)OC(=O)C[C@H](O)C(C)(C)C(=O)[C@H](C)[C@@H](O)[C@@H](C)/C=C\C1 [9,10-cis-Dehydroepothilone D, 9,10-dehydrodes-epoxyepothilone B] | 56% | 59.4 nM | 28.5 nM | 109 nM | 102 nM | 146 nM | 72 nM | – | fold less potent than epothilone B [2, 14]: 330- to 670 fold; fold less potent than natural epothilone D [2, 14]: 20- to 30 fold
2 | C/C1=C/C[C@@H](/C(C)=C/c2csc(C)n2)OC(=O)C[C@H](O)C(C)(C)C(=O)[C@H](C)[C@@H](O)[C@@H](C)C(=O)OC1 [Bislactone] | – | – | – | – | – | – | – | 21.4 | IC50 (KB-31 (Epidermoid); [16]): 25.5 nM; IC50 [1, 17]: 25.2 nM
3 | C/C(=C\c1csc(C)n1)[C@@H]1CC2O[C@@H]2CCC[C@H](C)[C@H](O)[C@@H](C)C(=O)C(C)(C)[C@@H](O)CC(=O)O1 (stereo partly drawn) [Epothilone A] | – | – | – | – | – | – | – | – | potency as tubulin polymerization agent (rank order) (tubulin): epothilone B>epothilone A>Taxol; activity against Pgp-expressing MDR neuroblastoma cell line [3]: active
4 | C/C(=C\c1csc(C)n1)[C@@H]1C[C@@H]2O[C@]2(C)CCC[C@H](C)[C@H](O)[C@@H](C)C(=O)C(C)(C)[C@@H](O)CC(=O)O1 [Epothilone B] | 95% | – | 0.16 nM | – | – | – | – | 81.4 | IC50 (KB-31 (Epidermoid); [18]): 0.24 nM; IC50 [1, 19]: 0.15 nM; IC50 (A549 (lung); [20]): 0.16 nM; IC50 (HCT-116 (colon); [21]): 0.34 nM; IC50 (PC3-M (prostate)): 0.32 nM; IC50 (MCF-7 (breast); [22]): 0.29 nM; potency as tubulin polymerization agent (rank order) (tubulin): epothilone B>epothilone A>Taxol; formation of microtubule bundles [4]: most active, inducing extensive formation of microtubule bundles; in vivo antitumor effect compared with Taxol [5]: superiority; macrophage stimulatory activity as measured by nitric oxide release [6]: lacked any IFN-γ-treated murine-macrophage stimulatory activity
5 | C/C1=C/C[C@@H](/C(C)=C/c2csc(C)n2)OC(=O)C[C@H](O)C(C)(C)C(=O)[C@H](C)[C@@H](O)[C@@H](C)CCC1 [Epothilone D] | 88% | – | – | – | – | – | – | 62.3 | IC50 (KB-31 (Epidermoid); KB 3-1, read-out: IC50 KB-31 (Epidermoid), Table 1, mean of three independent experiments): 1.94 nM; IC50 (KB-31 (Epidermoid); [18]): 1.94 nM; IC50 [1, 17]: 1 nM; IC50 (A549 (lung); [20]): 4.62 nM; IC50 (HCT-116 (colon); [21]): 4.48 nM; IC50 (PC3-M (prostate)): 7.4 nM; IC50 (MCF-7 (breast); [22]): 2.31 nM
6 | CC(=O)O[C@H]1C(=O)[C@@]2(C)[C@H]([C@H](OC(=O)c3ccccc3)[C@]3(O)C[C@H](OC(=O)[C@H](O)[C@@H](NC(=O)c4ccccc4)c4ccccc4)C(C)=C1C3(C)C)[C@]1(OC(C)=O)CO[C@@H]1C[C@@H]2O [Paclitaxel (Taxol), Paclitaxel] | 53% | 2.67 nM | 842 nM | 5.19 nM | 4.88 nM | 6.62 nM | 3.26 nM | 38.9 | IC50 (KB-31 (Epidermoid); [16]): 2.9 nM; IC50 [1, 19]: 661 nM
7 | C/C1=C\C[C@@H](/C(C)=C/c2csc(C)n2)OC(=O)C[C@H](O)C(C)(C)C(=O)[C@H](C)[C@@H](O)[C@@H](C)/C=C/C1 [trans 9,10, trans 12,13-dehydroepothilone D] | 36% | 104 nM | 70.4 nM | 109 nM | 110 nM | 147 nM | 95 nM | – | average IC50 for growth inhibition, fold higher than cis 9,10-dehydroepothilone D ([2]; average over the cell line panel): 1.36 fold
